Assay results reported in PMC9144829, “Histone Deacetylase Inhibitory Activity and Antiproliferative Potential of New [6]-Shogaol Derivatives” (Molecules, 2022).
Like-named read-outs stand apart in the source and are kept apart here.

Columns and labels:
histone deacetylase = conditions: Figure 1; read-out: IC50 (known histone deacetylase inhibitors); cited from earlier work
[1] = test system: cholangiocarcinoma KKU-100 cells; assay: MTT assay, KKU-100 cells; type: cell-based, human
Procedure: (§1) The MTT reduction assay was performed with non-cancer (Vero), human cervical cancer (HeLa), human colon cancer (HCT116), human breast adenocarcinoma cancer (MCF-7), and cholangiocarcinoma (H-69 […], KKU-100 and KKU-M213B) cell lines according to the previously described method. Briefly, cells were seeded in 96-well plates. The next day, cells were exposed to the selected compounds at various concentrations and incubated for 24, 48 and 72 h. After incubation, the culture medium was exchanged with 110 µL of MTT (0.5 mg/mL in PBS medium) and further incubated for 2 h. The amount of MTT formazan product was determined after dissolving in DMSO by measuring its absorbance with a microplate reader (Bio-Rad Laboratories, Hercules, CA, USA) at a test wavelength of 550 nm and a reference wavelength of 655 nm. The cell viability was expressed as a percentage of the viable cells of control culture conditions, and the IC50 values of each group were calculated.

H-69 cells = assay: MTT assay, H-69 cells; type: cell-based
Procedure: as §1

[2] = test system: cholangiocarcinoma KKU-M213B cells; assay: MTT assay, KKU-M213B cells; type: cell-based, human; conditions: read-out: IC50 Values (Mean ± SD; n = 3)
Procedure: as §1

[3] = test system: human colon cancer (HCT116) cells; assay: MTT assay, HCT116 cells; type: cell-based
Procedure: as §1

[4] = test system: human cervical cancer (HeLa) cells; assay: MTT assay, HeLa cells; type: cell-based; conditions: for IC50: read-out: IC50 Values (Mean ± SD; n = 3), HeLa cells; for selectivity towards HeLa cells than non-cancer cells: HeLa versus non-cancer cells
Procedure: as §1

[5] = test system: human breast adenocarcinoma cancer (MCF-7) cells; assay: MTT assay, MCF-7 cells; type: cell-based
Procedure: as §1

Vero cells = assay: MTT assay, non-cancer Vero cells; type: cell-based; conditions: Chlorocebus sabaeus, read-out: IC50 Values (Mean ± SD; n = 3)
Procedure: as §1

[6] = test system: HDAC enzymes (HeLa nuclear extract, mixed-HDAC isoforms); assay: Fluor-de-Lys HDAC activity assay kit, HeLa nuclear extract as source of HDAC enzymes; type: biochemical, human; conditions: compounds at 100 µM
Procedure: The in vitro HDAC inhibitions of the obtained compounds were carried out with the assay kit containing mixed-HDAC isoforms. […] Therefore, the results were not fully related. However, compounds with good binding affinities should have the potential to be specific HDAC inhibitors for each isoform.
The semi-synthetic derivatives were evaluated for their ability to inhibit HDAC enzymes. Inhibition of HDAC activity in vitro was assessed using the Fluor-de-Lys HDAC activity assay kit (Biomol, Enzo Life Sciences International, Inc., Farmingdale, NY, USA). The HeLa nuclear extract provided with the kit was used as a source of HDAC enzymes for the in vitro study. TSA was used as the positive control. The HeLa nuclear extract, substrate, buffer and inhibitors were incubated. Deacetylation of the substrate was performed next by adding a developer to generate a fluorophore. The spectra Max Gemini XPS microplate spectrofluorometer (Molecular Devices, San Jose, CA, USA) was used to measure fluorescence signal with excitation at 360 nm and emission at 460 nm. A decrease in fluorescence signal indicated an inhibition of HDAC activity. Trichostatin A (TSA) was used as a positive control. All experiments were carried out in triplicate.

[7] = read-out: IC50 Values (Mean ± SD; n = 3), 24 h
[8] = read-out: IC50 Values (Mean ± SD; n = 3), 48 h
[9] = read-out: IC50 Values (Mean ± SD; n = 3), 72 h
[10] = Homo sapiens, KKU100, read-out: IC50 Values (Mean ± SD; n = 3), 24 h
[11] = Homo sapiens, KKU100, read-out: IC50 Values (Mean ± SD; n = 3), 48 h
[12] = Homo sapiens, KKU100, read-out: IC50 Values (Mean ± SD; n = 3), 72 h
[13] = Homo sapiens, NCI-H69, read-out: IC50 Values (Mean ± SD; n = 3), 24 h
[14] = Homo sapiens, NCI-H69, read-out: IC50 Values (Mean ± SD; n = 3), 48 h
[15] = Homo sapiens, NCI-H69, read-out: IC50 Values (Mean ± SD; n = 3), 72 h
[16] = Homo sapiens, HCT-116, read-out: IC50 Values (Mean ± SD; n = 3), 24 h
[17] = Homo sapiens, HCT-116, read-out: IC50 Values (Mean ± SD; n = 3), 48 h
[18] = Homo sapiens, HCT-116, read-out: IC50 Values (Mean ± SD; n = 3), 72 h
[19] = Homo sapiens, MCF7, read-out: IC50 Values (Mean ± SD; n = 3), 24 h
[20] = Homo sapiens, MCF7, read-out: IC50 Values (Mean ± SD; n = 3), 48 h
[21] = Homo sapiens, MCF7, read-out: IC50 Values (Mean ± SD; n = 3), 72 h

SMILES | IC50 [1, 10] [µM] | IC50 [1, 11] [µM] | IC50 [1, 12] [µM] | IC50 (Vero cells; 24 h) [µM] | IC50 (Vero cells; 48 h) [µM] | IC50 (Vero cells; 72 h) [µM] | IC50 (H-69 cells; [13]) [µM] | IC50 (H-69 cells; [14]) [µM] | IC50 (H-69 cells; [15]) [µM] | IC50 ([2]; Homo sapiens, 24 h) [µM] | IC50 ([2]; Homo sapiens, 48 h) [µM] | IC50 ([2]; Homo sapiens, 72 h) [µM] | IC50 [3, 16] [µM] | IC50 [3, 17] [µM] | IC50 [3, 18] [µM] | %HDAC Inhibition [6] [%] | IC50 ([4]; Homo sapiens, 24 h) [µM] | IC50 ([4]; Homo sapiens, 48 h) [µM] | IC50 ([4]; Homo sapiens, 72 h) [µM] | IC50 [5, 19] [µM] | also measured
COc1cc(CNC(=O)CCCCC(O)CC(C)C)ccc1O (stereo not shown) [Hydroxycapsaicin (2), hydroxycapsaicin] | – | – | – | – | – | – | – | – | – | – | – | – | – | – | – | – | – | – | – | – | IC50 (histone deacetylase): 72 µM
CCCCC[C@H](O)CC(=O)CCc1ccc(O)c(OC)c1 [[6]-Gingerol (3), [6]-gingerol] | – | – | – | – | – | – | – | – | – | – | – | – | – | – | – | – | – | – | – | – | IC50 (histone deacetylase): 61 µM
N.N.[Cl][Pt][Cl] [Cisplatin, reference compound] | – | – | – | – | – | – | – | – | – | – | – | – | – | – | – | – | – | – | – | – | IC50 [1, 7]: 17.32 ± 0.12 µM; IC50 [1, 8]: 11.2 ± 0.14 µM; IC50 [1, 9]: 7.57 ± 0.07 µM; IC50 (H-69 cells; [7]): > 20 µM; IC50 (H-69 cells; [8]): > 20 µM; IC50 (H-69 cells; [9]): 15.8 ± 0.35 µM; IC50 ([2]; 24 h): > 20 µM; IC50 ([2]; 48 h): 18.6 ± 0.57 µM; IC50 ([2]; 72 h): 13 ± 0.61 µM; IC50 [3, 7]: 21 ± 2.56 µM; IC50 [3, 8]: 7.61 ± 0.61 µM; IC50 [3, 9]: 4.98 ± 0.77 µM; IC50 ([4]; 24 h): 17.1 ± 1 µM; IC50 ([4]; 48 h): 9.97 ± 0.34 µM; IC50 ([4]; 72 h): 6.45 ± 0.12 µM; IC50 [5, 7]: 29.2 ± 1.35 µM; IC50 [5, 8]: 13.8 ± 0.54 µM; IC50 [5, 9]: 10.4 ± 0.25 µM
CCCCCC1CC(CCc2ccc(O)c(OC)c2)=NN1c1ccc(C(=O)O)cc1 (stereo not shown) [Compound 5k, 4-(3-(4-hydroxy-3-methoxyphenethyl)-5-pentyl-4,5-dihydro-1H-pyrazol-1-yl)benzo ic acid] | 68.1 ± 1.98 | 38.9 ± 0.65 | 26.99 ± 0.08 | 143 ± 2.15 | 128 ± 1.73 | 116.7 ± 1.13 | 68.7 ± 1.15 | 52.7 ± 1.73 | 47.6 ± 0.73 | 63.2 ± 2.52 | 35.7 ± 1.4 | 29.1 ± 1.17 | 94.4 ± 2.7 | 39.2 ± 1.06 | 34.5 ± 0.66 | 83 | 83.8 ± 1.83 | 56.8 ± 1.24 | 23.1 ± 0.76 | 56.6 ± 3.21 | selectivity towards HeLa cells than non-cancer cells [4]: about 5 fold; IC50 [5, 20]: 50.5 ± 1.64 µM; IC50 [5, 21]: 31.8 ± 0.88 µM
CCCCCC1CC(CCc2ccc(O)c(OC)c2)=NN1c1ccc([N+](=O)[O-])cc1 (stereo not shown) [Compound 5j, 2-methoxy-4-(2-(1-(4-nitrophenyl)-5-pentyl-4,5-dihydro-1H-pyrazol-3-yl)ethyl)phe nol] | 27.2 ± 0.59 | 22.4 ± 0.65 | 17.45 ± 0.14 | 41.6 ± 2.99 | 32.2 ± 1.31 | 26.1 ± 0.47 | 44.1 ± 0.89 | 34.6 ± 0.41 | 26.4 ± 0.43 | 23.9 ± 0.85 | 19.3 ± 0.9 | 13.8 ± 0.16 | 42.7 ± 2.23 | 10.2 ± 0.43 | 9.65 ± 0.17 | 85 | 26.8 ± 0.62 | 11.6 ± 0.6 | 8.09 ± 0.03 | 27.9 ± 0.86 | IC50 [5, 20]: 13.8 ± 0.56 µM; IC50 [5, 21]: 11.6 ± 0.44 µM
CCCCC/C=C/C(CCc1ccc(O)c(OC)c1)=N\Nc1nc2ccccc2s1 [Compound 4d, 4-((3Z,4E)-3-(2-(Benzo[d]thiazol-2-yl)hydrazono)dec-4-en-1-yl)-2-methoxyphenol] | 41.6 ± 1.24 | 31.5 ± 0.8 | 25.75 ± 0.2 | 170 ± 6.98 | 70 ± 1.27 | 60.1 ± 1.69 | 51.4 ± 1.51 | 41.4 ± 0.61 | 29.4 ± 0.89 | 39.84 ± 0.29 | 20.6 ± 0.18 | 18.2 ± 0.75 | 40.1 ± 1.47 | 28.3 ± 0.79 | 26.63 ± 0.15 | 80 | 51.6 ± 1.92 | 37.2 ± 1.33 | 33.7 ± 0.76 | 104 ± 3.17 | IC50 [5, 20]: 57.8 ± 2.37 µM; IC50 [5, 21]: 25.5 ± 1.15 µM
CCCCC/C=C/C(=O)CCc1ccc(O)c(OC)c1 [Compound 4, [6]-shogaol] | 27.64 ± 0.26 | 18.9 ± 0.48 | 17.04 ± 0.04 | 37.6 ± 0.94 | 36 ± 0.95 | 23.3 ± 0.24 | 38.4 ± 0.84 | 32 ± 0.55 | 24.78 ± 0.24 | 17.95 ± 0.05 | 12.9 ± 0.47 | 9.91 ± 0.17 | 17.3 ± 0.57 | 12.4 ± 0.15 | 12.3 ± 0.13 | 86 | 16.9 ± 0.8 | 9.26 ± 0.46 | 8.1 ± 0.29 | 24.8 ± 0.66 | IC50 (histone deacetylase): 50 µM; selectivity towards HeLa cells than non-cancer cells [4]: 3 fold; IC50 [5, 20]: 16.54 ± 0.15 µM; IC50 [5, 21]: 13.39 ± 0.07 µM
CCCCC/C=C/C(CCc1ccc(O)c(OC)c1)=N\Nc1ccccn1 [Compound 4c, 2-Methoxy-4-((3Z,4E)-3-(2-(pyridin-2-yl)hydrazono)dec-4-en-1-yl)phenol] | 36.8 ± 0.89 | 29.7 ± 0.96 | 19.2 ± 0.41 | 69.5 ± 3.94 | 49.31 ± 0.18 | 45.2 ± 0.49 | 40 ± 1.57 | 30.6 ± 0.82 | 28.7 ± 0.36 | 39 ± 0.27 | 28.98 ± 0.26 | 25.9 ± 0.71 | 20.2 ± 0.46 | 18.4 ± 0.32 | 17.2 ± 0.23 | 80 | 49.3 ± 1.27 | 33.4 ± 1.09 | 29.3 ± 0.88 | 46.4 ± 1.3 | IC50 [5, 20]: 39.4 ± 0.68 µM; IC50 [5, 21]: 27.1 ± 0.47 µM
